What was measured:
lipoamide = compound: NC(=O)CCCCC1CCSS1 [lipoamide]; assay: thermal stability z-score vs DMSO; higher = more thermally stabilized by treatment; conditions: HeLa, lipoamide concentration 100 µM
Procedure: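 Cellular thermal proteome profiling in HeLa cells. Cells were treated with 100 µM lipoamide for 1 h, with or without 1 mM arsenate for a further 1 h, then heated to ten temperatures (37-66.3 °C), and soluble protein was quantified by TMT mass spectrometry relative to 0.1% DMSO controls. The thermal stability score (sum of log2 fold changes minus the abundance score) was transformed to a z-score; mean of n = 3 experiments.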

potassium arsenate = compound: O=[As]([O-])(O)O.[K+] [potassium arsenate]; assay: as above; conditions: HeLa; arsenate concentration 1 mM
Procedure: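 Cellular thermal proteome profiling in HeLa cells treated with 1 mM arsenate for 1 h (DMSO pretreatment), heated to ten temperatures (37-66.3 °C). Soluble protein was quantified by TMT mass spectrometry relative to DMSO controls; the thermal stability score was transformed to a z-score; mean of n = 3 experiments.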

[1] = arsenate co-treatment: 1 mM arsenate 1 h
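Further: each temperature applied for 3 min, abundance score taken as mean log2 fold change at the two lowest temperatures, z-score obtained by mean subtraction and division by SD.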

UniProt Q8N9N8, sequence (Q8N9N8 whole entry): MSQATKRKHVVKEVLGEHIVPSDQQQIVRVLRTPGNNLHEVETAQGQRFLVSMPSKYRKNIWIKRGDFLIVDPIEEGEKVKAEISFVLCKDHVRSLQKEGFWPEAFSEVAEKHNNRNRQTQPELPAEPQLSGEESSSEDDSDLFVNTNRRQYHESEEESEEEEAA
UniProt Q9UNP9, sequence (Q9UNP9 whole entry): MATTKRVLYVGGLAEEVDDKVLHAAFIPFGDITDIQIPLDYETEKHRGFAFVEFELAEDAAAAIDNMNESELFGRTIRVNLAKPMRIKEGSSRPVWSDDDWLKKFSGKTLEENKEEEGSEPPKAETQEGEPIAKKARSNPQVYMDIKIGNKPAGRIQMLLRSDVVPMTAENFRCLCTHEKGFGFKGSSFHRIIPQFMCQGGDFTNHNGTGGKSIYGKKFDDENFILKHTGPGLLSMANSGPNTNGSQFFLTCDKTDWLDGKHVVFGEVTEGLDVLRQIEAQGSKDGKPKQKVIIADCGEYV
UniProt P53367, sequence (P53367 whole entry): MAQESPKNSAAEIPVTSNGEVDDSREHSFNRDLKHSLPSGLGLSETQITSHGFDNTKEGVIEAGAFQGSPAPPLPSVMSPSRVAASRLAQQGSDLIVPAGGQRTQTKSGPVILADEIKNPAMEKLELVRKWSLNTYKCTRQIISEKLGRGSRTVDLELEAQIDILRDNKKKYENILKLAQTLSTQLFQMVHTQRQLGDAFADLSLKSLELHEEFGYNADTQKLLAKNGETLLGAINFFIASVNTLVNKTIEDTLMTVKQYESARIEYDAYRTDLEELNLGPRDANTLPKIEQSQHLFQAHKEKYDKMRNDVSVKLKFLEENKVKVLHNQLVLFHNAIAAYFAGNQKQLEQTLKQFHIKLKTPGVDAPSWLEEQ
UniProt Q9UKM7, sequence (Q9UKM7 whole entry): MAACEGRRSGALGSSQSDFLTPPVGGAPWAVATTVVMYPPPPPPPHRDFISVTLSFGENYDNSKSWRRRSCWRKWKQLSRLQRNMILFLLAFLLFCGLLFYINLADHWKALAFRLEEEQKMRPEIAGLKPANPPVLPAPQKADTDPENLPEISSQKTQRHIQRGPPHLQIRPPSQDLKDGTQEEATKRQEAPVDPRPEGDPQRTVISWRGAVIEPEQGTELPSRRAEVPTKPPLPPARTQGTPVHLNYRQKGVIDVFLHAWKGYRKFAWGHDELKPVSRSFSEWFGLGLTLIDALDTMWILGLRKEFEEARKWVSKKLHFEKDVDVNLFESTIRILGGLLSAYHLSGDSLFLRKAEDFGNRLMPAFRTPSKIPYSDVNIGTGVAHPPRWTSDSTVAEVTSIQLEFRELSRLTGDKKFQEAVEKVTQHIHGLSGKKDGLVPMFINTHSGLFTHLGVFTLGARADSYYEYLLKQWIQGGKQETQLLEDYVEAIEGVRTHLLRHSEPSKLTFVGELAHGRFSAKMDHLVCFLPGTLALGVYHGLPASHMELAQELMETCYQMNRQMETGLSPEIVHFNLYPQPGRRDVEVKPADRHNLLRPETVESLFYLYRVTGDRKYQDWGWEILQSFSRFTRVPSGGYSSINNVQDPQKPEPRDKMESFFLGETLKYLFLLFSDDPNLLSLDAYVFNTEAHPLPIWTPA
UniProt Q15643, sequence (Q15643 whole entry): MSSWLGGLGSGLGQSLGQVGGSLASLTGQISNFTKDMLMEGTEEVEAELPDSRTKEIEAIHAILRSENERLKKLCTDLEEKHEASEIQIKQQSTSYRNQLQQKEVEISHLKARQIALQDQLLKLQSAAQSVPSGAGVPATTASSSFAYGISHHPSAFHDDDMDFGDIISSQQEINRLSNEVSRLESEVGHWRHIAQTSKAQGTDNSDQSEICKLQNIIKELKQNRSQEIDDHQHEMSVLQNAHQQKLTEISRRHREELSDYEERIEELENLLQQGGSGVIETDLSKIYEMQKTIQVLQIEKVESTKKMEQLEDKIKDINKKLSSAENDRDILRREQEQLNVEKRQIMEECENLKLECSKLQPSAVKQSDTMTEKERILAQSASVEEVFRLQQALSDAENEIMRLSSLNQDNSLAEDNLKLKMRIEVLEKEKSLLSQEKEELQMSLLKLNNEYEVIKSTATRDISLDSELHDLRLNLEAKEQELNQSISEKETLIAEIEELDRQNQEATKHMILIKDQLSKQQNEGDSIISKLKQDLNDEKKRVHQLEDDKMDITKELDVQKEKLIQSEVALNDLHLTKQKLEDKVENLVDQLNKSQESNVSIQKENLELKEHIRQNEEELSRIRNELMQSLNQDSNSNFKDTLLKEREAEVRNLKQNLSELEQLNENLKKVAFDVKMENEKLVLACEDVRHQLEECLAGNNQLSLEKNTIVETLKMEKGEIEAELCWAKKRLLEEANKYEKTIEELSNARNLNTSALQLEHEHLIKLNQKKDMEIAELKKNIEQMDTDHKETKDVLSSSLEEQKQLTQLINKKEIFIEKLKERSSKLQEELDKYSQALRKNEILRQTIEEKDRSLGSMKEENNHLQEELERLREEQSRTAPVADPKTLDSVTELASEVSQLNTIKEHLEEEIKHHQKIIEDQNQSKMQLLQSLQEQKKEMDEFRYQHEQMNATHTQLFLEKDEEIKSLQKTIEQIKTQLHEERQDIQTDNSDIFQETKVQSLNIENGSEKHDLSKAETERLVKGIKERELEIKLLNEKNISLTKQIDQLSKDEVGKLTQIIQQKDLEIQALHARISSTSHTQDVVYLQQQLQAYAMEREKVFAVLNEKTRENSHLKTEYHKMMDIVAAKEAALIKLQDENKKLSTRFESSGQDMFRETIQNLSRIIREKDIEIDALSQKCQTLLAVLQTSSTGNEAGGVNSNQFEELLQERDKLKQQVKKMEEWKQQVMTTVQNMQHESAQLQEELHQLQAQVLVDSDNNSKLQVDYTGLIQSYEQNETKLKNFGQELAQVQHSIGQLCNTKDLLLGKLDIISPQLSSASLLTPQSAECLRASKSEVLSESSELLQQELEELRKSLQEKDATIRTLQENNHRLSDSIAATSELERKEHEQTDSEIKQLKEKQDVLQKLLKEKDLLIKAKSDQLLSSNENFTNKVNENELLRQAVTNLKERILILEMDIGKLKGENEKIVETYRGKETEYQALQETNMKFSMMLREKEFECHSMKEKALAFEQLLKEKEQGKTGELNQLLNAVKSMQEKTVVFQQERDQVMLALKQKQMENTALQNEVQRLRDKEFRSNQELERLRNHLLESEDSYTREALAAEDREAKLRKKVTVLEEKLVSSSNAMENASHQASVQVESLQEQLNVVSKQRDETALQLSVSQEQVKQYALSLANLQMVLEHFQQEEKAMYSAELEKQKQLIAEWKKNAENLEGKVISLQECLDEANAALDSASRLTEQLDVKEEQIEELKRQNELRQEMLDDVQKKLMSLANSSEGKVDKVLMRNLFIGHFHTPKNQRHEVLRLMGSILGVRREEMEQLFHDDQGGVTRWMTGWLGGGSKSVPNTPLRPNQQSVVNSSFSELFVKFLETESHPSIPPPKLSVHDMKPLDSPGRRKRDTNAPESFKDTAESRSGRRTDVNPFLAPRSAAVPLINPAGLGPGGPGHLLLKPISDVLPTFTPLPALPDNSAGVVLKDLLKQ
UniProt P51659, sequence (P51659 whole entry): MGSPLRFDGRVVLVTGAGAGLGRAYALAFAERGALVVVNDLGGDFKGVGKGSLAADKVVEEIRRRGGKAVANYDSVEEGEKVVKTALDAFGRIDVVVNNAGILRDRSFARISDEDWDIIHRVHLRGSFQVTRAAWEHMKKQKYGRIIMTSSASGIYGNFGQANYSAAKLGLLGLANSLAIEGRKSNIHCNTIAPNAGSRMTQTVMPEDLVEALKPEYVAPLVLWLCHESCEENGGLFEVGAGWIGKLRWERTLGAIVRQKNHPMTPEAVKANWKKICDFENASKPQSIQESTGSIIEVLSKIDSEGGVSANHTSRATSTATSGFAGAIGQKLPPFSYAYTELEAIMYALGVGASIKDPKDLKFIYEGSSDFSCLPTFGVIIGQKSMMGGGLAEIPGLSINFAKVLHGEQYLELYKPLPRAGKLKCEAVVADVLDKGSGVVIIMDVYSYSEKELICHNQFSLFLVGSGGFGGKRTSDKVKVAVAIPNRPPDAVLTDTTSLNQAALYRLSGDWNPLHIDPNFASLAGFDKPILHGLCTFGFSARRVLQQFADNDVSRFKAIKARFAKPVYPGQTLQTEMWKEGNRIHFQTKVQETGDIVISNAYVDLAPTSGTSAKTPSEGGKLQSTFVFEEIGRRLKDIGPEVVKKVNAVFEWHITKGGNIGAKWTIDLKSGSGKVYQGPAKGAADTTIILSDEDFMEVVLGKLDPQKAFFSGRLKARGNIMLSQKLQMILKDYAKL
UniProt O95677, sequence (O95677 whole entry): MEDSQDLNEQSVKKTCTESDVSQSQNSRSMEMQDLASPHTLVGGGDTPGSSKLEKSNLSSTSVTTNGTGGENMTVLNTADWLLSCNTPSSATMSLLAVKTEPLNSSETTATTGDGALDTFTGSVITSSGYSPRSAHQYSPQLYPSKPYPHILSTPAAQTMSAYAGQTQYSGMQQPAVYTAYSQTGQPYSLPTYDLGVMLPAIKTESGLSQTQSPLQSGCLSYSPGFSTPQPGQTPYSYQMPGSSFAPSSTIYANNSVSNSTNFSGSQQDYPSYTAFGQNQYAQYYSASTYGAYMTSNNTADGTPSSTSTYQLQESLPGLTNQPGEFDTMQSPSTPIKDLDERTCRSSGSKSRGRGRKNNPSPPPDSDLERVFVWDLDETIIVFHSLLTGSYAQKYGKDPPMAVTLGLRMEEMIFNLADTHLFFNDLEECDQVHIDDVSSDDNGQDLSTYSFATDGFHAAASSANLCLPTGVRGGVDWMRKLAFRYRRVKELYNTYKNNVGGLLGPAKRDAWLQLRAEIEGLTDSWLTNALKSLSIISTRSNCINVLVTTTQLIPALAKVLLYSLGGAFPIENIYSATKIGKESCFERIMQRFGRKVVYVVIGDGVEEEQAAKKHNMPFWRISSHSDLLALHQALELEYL
UniProt P60520, sequence (P60520 whole entry): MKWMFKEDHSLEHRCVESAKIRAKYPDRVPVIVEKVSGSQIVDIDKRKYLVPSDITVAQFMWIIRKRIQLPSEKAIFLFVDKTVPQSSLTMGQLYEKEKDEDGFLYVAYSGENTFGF

| Target | thermal stability z-score (lipoamide; [1]) | thermal stability z-score (lipoamide; arsenate co-treatment: none) | thermal stability z-score (potassium arsenate) |
| --- | --- | --- | --- |
| EIF4A1 (UniProt P60842) | 0.413 | 0.201 | 0.0167 |
| IFRD2 (UniProt Q12894) | 0.798 | 0.638 | 3.33 |
| MON1B (UniProt Q7L1V2) | 0.955 | 0.582 | 0.685 |
| CCDC115 (UniProt Q96NT0) | 0.112 | 0.611 | -0.392 |
| ELP2 (UniProt Q6IA86) | 0.0198 | -0.186 | -0.24 |
| TIMP1 (UniProt P01033) | -0.407 | -1.02 | -0.272 |
| RAE1 (UniProt P78406) | 0.676 | 1.04 | 0.662 |
| HSD17B4 (UniProt P51659) | 0.258 | 0.497 | 0.201 |
| IMPACT (UniProt Q9P2X3) | 0.0967 | -0.0125 | 0.103 |
| LRP8 (UniProt Q14114) | -0.785 | -0.422 | -0.43 |
| HACD2 (UniProt Q6Y1H2) | -0.673 | -0.4 | 0.798 |
| ARFIP1 (UniProt P53367) | 0.444 | 0.144 | 0.0115 |
| WEE1 (UniProt P30291) | -0.142 | 0.206 | 0.00265 |
| SWAP70 (UniProt Q9UH65) | -0.295 | 0.217 | 0.3 |
| RPL10A (UniProt P62906) | 0.849 | 0.534 | 0.27 |
| FNTA (UniProt P49354) | -0.0233 | -0.0253 | 0.355 |
| SCAP (UniProt Q12770) | -1.13 | 0.0662 | -0.473 |
| CLU (UniProt P10909) | -1.81 | -2.08 | 0.0163 |
| PAFAH2 (UniProt Q99487) | 0.543 | -0.499 | -0.363 |
| CDC42BPA (UniProt Q5VT25) | 0.504 | 0.561 | 0.379 |
| AXL (UniProt P30530) | 0.0102 | 0.0513 | 0.0984 |
| FCHO2 (UniProt Q0JRZ9) | -0.472 | -0.218 | 0.405 |
| HS1BP3 (UniProt Q53T59) | -0.135 | 0.097 | -0.105 |
| QARS | -0.515 | -0.706 | -0.289 |

| Target | thermal stability z-score (lipoamide; [1]) | thermal stability z-score (lipoamide; arsenate co-treatment: none) | thermal stability z-score (potassium arsenate) |
| --- | --- | --- | --- |
| ARFGAP2 (UniProt Q8N6H7) | -0.346 | -0.143 | 0.0541 |
| MATK (UniProt P42679) | -0.101 | -0.0941 | -0.0451 |
| CEP41 (UniProt Q9BYV8) | -0.0855 | -0.44 | -0.106 |
| NSUN2 (UniProt Q08J23) | -1.4 | -0.353 | -0.192 |
| HDLBP (UniProt Q00341) | -0.35 | 0.231 | -0.295 |
| TBC1D22A (UniProt Q8WUA7) | -1.16 | -0.15 | -1.19 |
| SRRM1 (UniProt Q8IYB3) | 0.79 | 0.714 | -2.14 |
| MRPS21 (UniProt P82921) | -0.28 | -0.78 | 1.03 |
| LSM14B (UniProt Q9BX40) | -0.354 | 0.0171 | 0.218 |
| CORO1C (UniProt Q9ULV4) | -1.05 | -0.614 | 1.13 |
| PALMD (UniProt Q9NP74) | 1.1 | 0.987 | 1.81 |
| MPG (UniProt P29372) | 0.128 | 0.378 | 0.572 |
| EIF1AD (UniProt Q8N9N8) | 0.433 | 0.98 | 1.09 |
| TUBB (UniProt P07437) | 0.525 | -0.284 | -0.425 |
| GINS4 (UniProt Q9BRT9) | 0.2 | -0.173 | -0.614 |
| TRIP11 (UniProt Q15643) | -2.35 | -0.484 | 0.782 |
| PPIE (UniProt Q9UNP9) | 0.246 | 0.0366 | 0.128 |
| ANKLE2 (UniProt Q86XL3) | -1.08 | -0.166 | 0.76 |
| TTI1 (UniProt O43156) | 0.86 | 1.21 | 1.78 |
| ARFIP2 (UniProt P53365) | -0.0772 | -0.0355 | 0.108 |
| PTGES2 (UniProt Q9H7Z7) | -0.199 | 0.0528 | 0.178 |
| SACM1L (UniProt Q9NTJ5) | -0.145 | -0.499 | 0.448 |
| LRSAM1 (UniProt Q6UWE0) | -0.763 | -0.714 | -0.676 |
| MAN1B1 (UniProt Q9UKM7) | -0.361 | -0.286 | 0.103 |

| Target | thermal stability z-score (lipoamide; [1]) | thermal stability z-score (lipoamide; arsenate co-treatment: none) | thermal stability z-score (potassium arsenate) |
| --- | --- | --- | --- |
| LPCAT3 (UniProt Q6P1A2) | 0.125 | 0.0829 | 0.724 |
| RAPH1 (UniProt Q70E73) | -0.113 | -0.22 | 0.0198 |
| EPRS (UniProt P07814) | -0.648 | -0.436 | 0.432 |
| EYA4 (UniProt O95677) | 0.0211 | -0.116 | 0.168 |
| EI24 (UniProt O14681) | 0.221 | -0.249 | -0.123 |
| LY6K (UniProt Q17RY6) | -3.06 | -2.7 | 2.42 |
| SBNO1 (UniProt A3KN83) | 0.158 | 0.686 | 0.146 |
| BCAR1 (UniProt P56945) | -0.559 | -0.583 | -0.154 |
| EMC4 (UniProt Q5J8M3) | -0.342 | 0.294 | 0.26 |
| SLC35F6 (UniProt Q8N357) | -0.707 | -0.328 | -0.279 |
| PUM1 (UniProt Q14671) | -0.249 | -0.0302 | -0.174 |
| PHYH (UniProt O14832) | 0.0197 | -0.12 | -0.196 |
| MFN1 (UniProt Q8IWA4) | -0.522 | -0.191 | 0.157 |
| CSTB (UniProt P04080) | 0.399 | 0.0839 | 0.59 |
| MAP4K3 (UniProt Q8IVH8) | 0.23 | -0.0792 | 0.139 |
| CPT2 (UniProt P23786) | -0.296 | 0.0116 | 0.228 |
| ATP6V1A (UniProt P38606) | -0.368 | -0.529 | -0.613 |
| ZNRF2 (UniProt Q8NHG8) | -0.729 | -0.885 | -2.6 |
| MRPS27 (UniProt Q92552) | -0.204 | -0.193 | 0.189 |
| GABARAPL2 (UniProt P60520) | 0.14 | -0.266 | 0.209 |
| DHX30 (UniProt Q7L2E3) | -0.306 | 0.192 | -0.391 |
| GNPAT (UniProt O15228) | 0.161 | 0.296 | 0.518 |
| AGMAT (UniProt Q9BSE5) | 0.292 | 0.565 | 0.92 |

— the supplement of paper PMC12463676, “Small-molecule dissolution of stress granules by redox modulation benefits ALS models” (Nature Chemical Biology, 2025)
